The text below walks through data of patent US10039846B2, “Compositions targeting bradykinin receptor B1 for medical imaging of cancer and other disorders” (BRITISH COLUMBIA CANCER AGENCY BRANCH, priority 2012, dated 2018).

In data set [1] the test system is HEK-293 and HEK-293/BKRB1 tumours. The data set can be described thus: PET/CT imaging of 68Ga-labelled peptides in tumour-bearing mice. To be noted: PET/CT 60 minutes after intravenous injection.
Procedure: (§1) For in vivo imaging, HEK-293 and HEK-293 cells stably transfected with the human bradykinin receptor B1 (HEK-293/BKRB1) were inoculated in the flank of immunodeficient mice (NODSCID IL2rKO). […] A computer tomography image of the mouse was obtained for organ localization and attenuation correction, followed by PET imaging, using a Siemens Inveon multimodality preclinical scanner. Images were acquired over 10-15 minutes for each animal.
Data set [2] shares this test system. To be noted: mouse.
Procedure: as §1

Where two headings read alike, the source gives them in different places. Where a SMILES comes first, the peptide text is derived from it. [ ]: non-standard residue; d: D form. The star is where a group is joined. DOTA = O=C(O)CN1CCN(CC(=O)O)CCN(CC(=O)*)CCN(CC(=O)O)CC1; Hyp = O=C(O)[C@@H]1C[C@@H](O)CN1; Cha = N[C@@H](CC1CCCCC1)C(=O)O; Ahx = NCCCCCC(=O)O

Turning to `CC(C)C[C@H](NC(=O)[C@@H]1CCCN1C(=O)[C@H](CO)NC(=O)[C@H](CC1CCCCC1)NC(=O)CNC(=O)[C@@H]1C[C@@H](O)CN1C(=O)[C@@H]1CCCN1C(=O)[C@H](CCCNC(=N)N)NC(=O)[C@H](CCCCN)NC(=O)CNC(=O)CNC(=O)CN1CCN(CC(=O)O)CCN(CC(=O)O)CCN(CC(=O)O)CC1)C(=O)O` [Peptide 8, Ga-DOTA-Gly-Gly-Lys-Arg-Pro-Hyp-Gly-Cha-Ser-Pro-Leu] ({DOTA}-GGKRP[Hyp]G[Cha]SPL-OH), in data set [1], the clearance route result was “predominantly via the kidneys and bladder”; the “uptake / visualization of B1R+ tumour” value was “good visualization of B1R+ expressing cells”; the “uptake in negative control (B1R-) tumour” value is “essentially negligible non-specific uptake”.

Regarding `CC(C)C[C@H](NC(=O)[C@@H]1CCCN1C(=O)[C@H](CO)NC(=O)[C@H](CC1CCCCC1)NC(=O)CNC(=O)[C@@H]1C[C@@H](O)CN1C(=O)[C@@H]1CCCN1C(=O)[C@H](CCCNC(=N)N)NC(=O)[C@H](CCCCN)NC(=O)CCCCCNC(=O)CN1CCN(CC(=O)O)CCN(CC(=O)O)CCN(CC(=O)O)CC1)C(=O)O` [Peptide 10, Ga-DOTA-Ahx-Lys-Arg-Pro-Hyp-Gly-Cha-Ser-Pro-Leu] ({DOTA-Ahx}-KRP[Hyp]G[Cha]SPL-OH), the in vivo stability result in data set [2] was “much greater in vivo stability”. The background activity entry in data set [2] (in vivo, iv) is “lower background uptake”.

Consider `N=C(N)NCCC[C@H](NC(=O)[C@H](CCCCN)NC(=O)CCCCCNC(=O)CN1CCN(CC(=O)O)CCN(CC(=O)O)CCN(CC(=O)O)CC1)C(=O)N1CCC[C@H]1C(=O)N1C[C@H](O)C[C@H]1C(=O)NCC(=O)N[C@@H](CC1CCCCC1)C(=O)N[C@@H](CO)C(=O)N1CCC[C@H]1C(=O)N[C@H](Cc1ccccc1)C(=O)O` [Peptide 12, Ga-DOTA-Ahx-Lys-Arg-Pro-Hyp-Gly-Cha-Ser-Pro-(D-Phe)], for which, in data set [1], the background activity entry is “minimal background activity”; the clearance route entry is “good clearance through the kidneys and bladder”; the “uptake / visualization of B1R+ tumour” value was “Slightly higher tumour uptake”; the “uptake in negative control (B1R-) tumour” value is reported as “no non-specific tumour uptake”.
